Measurements: publication PMC4197335, “Cancer-Selective Targeting of the NF-κB Survival Pathway with GADD45β/MKK7 Inhibitors” (Cancer Cell, 2014)
Like-named read-outs stand apart in the source and are kept apart here. Each block holds one molecule with its values, some of them ahead of it. Where a SMILES comes first, the peptide text is derived from it. [ ]: non-standard residue; d: D form. The star is where a group is joined. Benzoyl(3-OH,4-OMe) = COc1ccc(C(=O)*)cc1O; Cbz = O=C(OCc1ccccc1)*

How the values were obtained:
[1] = test system: U266 MM cells; conditions: read-out: IC50 (U266 cells); Table S3; day 6; [3H]thymidine incorporation or trypan blue exclusion
[2] = target: T1, GADD45β/MKK7 complex (Homo sapiens, UniProt O14733); assay: ELISA GADD45β/MKK7 competition assay; format: binding; conditions: for inhibition at 0.042 µM / % inhibition (ELISA): peptide at 42 nM
T1 construct: Full-length human (h)MKK7 was expressed as a protein fused to an N-terminal GST tag (GST-MKK7); made in house
T1 sequence (O14733 1-419): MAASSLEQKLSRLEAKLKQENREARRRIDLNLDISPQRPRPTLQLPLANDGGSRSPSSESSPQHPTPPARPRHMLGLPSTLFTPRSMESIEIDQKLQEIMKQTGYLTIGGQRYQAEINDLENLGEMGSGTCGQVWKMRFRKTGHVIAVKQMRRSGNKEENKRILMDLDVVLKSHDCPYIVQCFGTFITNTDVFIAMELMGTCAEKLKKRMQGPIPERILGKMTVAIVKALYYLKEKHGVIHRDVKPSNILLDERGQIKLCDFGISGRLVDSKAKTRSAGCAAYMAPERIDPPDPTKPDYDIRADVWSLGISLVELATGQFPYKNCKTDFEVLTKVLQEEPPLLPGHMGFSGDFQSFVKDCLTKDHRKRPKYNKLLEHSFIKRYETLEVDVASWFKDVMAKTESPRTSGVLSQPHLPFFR
Description: Additional details are provided in Supplemental Experimental Procedures.
(1:1,000) and the HRP chromogenic substrate, o -phenylenediamine (OPD). GST -coated wells wer e […]
The ELISA competition screen used f or the isolation of antagonists of the GADD45β /MKK7 […]
The library deconvolution strategy used for this screen was described previously […]
General information about this type of screens can be found elsewhere […]
Values were expressed as the percentage of inhibition of His6-hGADD45β binding to GST-hMKK7 relative to the binding measured in the absence of […]
Dose-response, ELISA GADD45β /MKK7 competition assays were carried out under similar […]
As part of the SAR analysis and lead optimization process, where appropriate, competitors were tested at a concentration up to 100 nM. In order to determine their stability in biolog ical f luids , peptides were incubated at the concentration of 10 µM in […]
calculated using at least 7 concentrations of peptide and def ined as the mean concentration of peptide […]
the absence of competitor. W here indicated, values were expressed as the percentage of inhibition of His 6 -hGADD45β binding to GST-hMKK7 relative to the binding measured in the absence of competitor.
GST was used as a control in all the experiments. […]
tetrapeptide used as negative control in some of the ELISA and cellular assays was as f ollows: z -DNC, z-T yr -Asp-His-Gln-NH 2 . […]

[3] = pharmacokinetics after single intravenous injection
Procedure: The pharmacokinetic analyses of DTP3 and z-DTP2 were outsourced. Additional details are provided in Supplemental Experimental Procedures. […]
Pharmacokinetic Anal yses
In vitro and in vivo pharmacok inetic analyses were outsourced to Cypr ot ex (http://www.c yprotex.com/home/) (Figure 7A, Tables S6). In vitro pharmacok inetic assays were perf ormed according to established, in- house protocols and included: plasma stability (human), thermodynamic solubility (PBS pH 7.4, at 37 °C f or 14 days), microsomal stability (human), plasma protein binding (PPB; mouse and human), and distribution coeff icient (LogD). In vivo pharmacok inetic […]
analyses were also perf ormed at Cyprotex according to established, in- house protocols. Brief ly, the peptides were dissolved in PBS and administered by single intravenous injection t o CD1 male mice at the dose of 10 mg/kg (25 -30 g of total body weight; n=3 mice per time point per compound) . Blood samples were collected in heparinized tubes at up to 7 tim e points after this injection (i.e. 0.08, 0.25, 0.5, 1, 2, 4 and 8 hr), and the plasma concentrations of the test peptide were determined at each time point by LC-MS/ MS, using a f ive- point standard curve covering a peptide concentration range from 3 to 3,000 ng/mL. Standard curves were prepared using blank plasma matrices and treated in the same manner as the test samples. The main pharmacok inetic parameters determined in these analyses were: terminal half-lif e (t 1/2 ), plasma clearance (CL), volume of distribution (V d ), and area under the plasma concentration versus time curve (AUC) (Figure 7A, Table S6). Values were calculated from the data of the peptide plasma concentration versus time curves using a non-compartmental model analysis, as described elsewhere (Groulx, 2006; Landaw and Di Stef ano 3rd, 1982) . […]

[4] = aqueous solubility; format: physicochemical
[5] = Table S3, peptide at 10 nM, read-out: % inhibition (ELISA)
[6] = Table S3, read-out: IC50 (ELISA)
[7] = Table S2, read-out: % inhibition (ELISA)
[8] = Table S4, read-out: IC50s (ELISA)
[9] = read-out: % inhibition of (ELISA)
[10] = Table S4, values marked (#), read-out: % inhibition of (ELISA)

Molecule: CCCCCCCCCCCCCC(=O)N[C@H](Cc1ccc(O)cc1)C(=O)N[C@H](CC(=O)O)C(=O)N[C@H](Cc1c[nH]cn1)C(=O)N[C@H](Cc1ccccc1)C(N)=O [Myr-YDHF-NH2]
IC50 [1]: > 10000 nM
inhibition at 0.01 µM [2, 5]: 26%
IC50 [2, 6]: > 10 nM

Molecule: CCCCCCCCCCCCCC(=O)N[C@H](Cc1ccc(O)cc1)C(=O)N[C@H](CC(=O)O)C(=O)N[C@H](Cc1c[nH]cn1)C(=O)N[C@H](CCC(N)=O)C(N)=O [Myr-YDHQ-NH2]
IC50 [1]: > 10000 nM
inhibition at 0.01 µM [2, 5]: 28%
IC50 [2, 6]: > 10 nM

Molecule: N=C(N)NCCC[C@@H](NC(=O)[C@@H](CCC(=O)O)NC(=O)[C@@H](Cc1ccc(O)cc1)NC(=O)OCc1ccccc1)C(=O)N[C@H](Cc1ccccc1)C(N)=O [z-DTP2, z-YERF-NH2] (Cbz-[dY][dE][dR][dF]-NH2)
inhibition at 0.01 µM [2, 5]: 95%
predicted dose required to achieve the therapeutic plasma concentration of 1 μM at the steady state ([3]; k0 = k1 x Vd x Cp): 3.61 mg/kg/h
AUC ([3]; mouse, in vivo, iv, 10 mg/kg): 2060 ± 250 ng·h/mL
Vd ([3]; mouse, in vivo, iv, 10 mg/kg): 14.6 ± 2.23 L/kg
clearance ([3]; mouse, in vivo, iv, 10 mg/kg): 78.1 ± 11.7 mL/min/kg
half-life ([3]; mouse, in vivo, iv, 10 mg/kg): 2.09 ± 0.07 h

Molecule: NC(=O)[C@@H](Cc1ccccc1)NC(=O)[C@@H](Cc1c[nH]cn1)NC(=O)[C@@H](CC(=O)O)NC(=O)[C@@H](Cc1ccc(O)cc1)NC(=O)c1ccccc1 [Benzoyl-YDHF-NH2]
IC50 [1]: > 10000 nM
IC50 [2]: > 10 nM
inhibition at 0.01 µM ([2]; read-out: % inhibition (ELISA)): 0%
inhibition at 0.01 µM [2, 9]: 1%

Molecule: Ac-WDHW-NH2
% inhibition (ELISA) ([2]; Table S2): 50%

Molecule: NC(=O)CC[C@@H](NC(=O)[C@@H](Cc1c[nH]cn1)NC(=O)[C@@H](CC(=O)O)NC(=O)[C@@H](Cc1ccc(O)cc1)NC(=O)c1ccccc1)C(N)=O [Benzoyl-YDHQ-NH2]
IC50 [1]: > 10000 nM
IC50 [2]: > 10 nM
inhibition at 0.01 µM ([2]; read-out: % inhibition (ELISA)): 1%
inhibition at 0.01 µM [2, 9]: 0%

Molecule: CCCCCCCCCCCCCC(=O)N[C@H](Cc1ccc(O)cc1)C(=O)N[C@H](CCC(=O)O)C(=O)N[C@H](CCCNC(=N)N)C(=O)N[C@H](Cc1ccccc1)C(N)=O [Myr-YERF-NH2]
IC50 [1]: > 10000 nM
inhibition at 0.01 µM [2, 5]: 37%
IC50 [2, 6]: > 10 nM

Molecule: CC(=O)N[C@H](Cc1ccc(O)cc1)C(=O)N[C@H](CCC(=O)O)C(=O)N[C@H](CCCNC(=N)N)C(=O)N[C@H](Cc1ccccc1)C(N)=O [Ac-DTP2, Ac-Tyr-Glu-Arg-Phe-NH2]
IC50 ([2]; Figure 3A, before preincubation with human serum, read-out: IC50): 0.22 nM
IC50 ([2]; Figure 3B, after a 48 hr preincubation with human serum, read-out: IC50): 0.22 nM

Molecule: COc1ccc(C(=O)N[C@H](Cc2ccc(O)cc2)C(=O)N[C@H](CCC(=O)O)C(=O)N[C@H](CCCNC(=N)N)C(=O)N[C@H](Cc2ccccc2)C(N)=O)cc1O ({Benzoyl(3-OH,4-OMe)}-[dY][dE][dR][dF]-NH2)
inhibition at 0.01 µM ([2]; read-out: % inhibition (ELISA)): 86%

Molecule: COc1ccc(C(=O)N[C@H](Cc2ccc(O)cc2)C(=O)N[C@H](CC(=O)O)C(=O)N[C@H](Cc2c[nH]cn2)C(=O)N[C@H](Cc2ccccc2)C(N)=O)cc1O ({Benzoyl(3-OH,4-OMe)}-[dY][dD][dH][dF]-NH2)
inhibition at 0.01 µM ([2]; read-out: % inhibition (ELISA)): 81%

Molecule: N=C(N)NCCC[C@@H](NC(=O)[C@@H](CCC(=O)O)NC(=O)[C@@H](Cc1ccc(O)cc1)NC(=O)c1ccccc1)C(=O)N[C@H](Cc1ccccc1)C(N)=O [Benzoyl-YERF-NH2]
IC50 [1]: > 10000 nM
IC50 [2]: > 10 nM
inhibition at 0.01 µM ([2]; read-out: % inhibition (ELISA)): 24%

Molecule: COc1ccc(C(=O)N[C@H](Cc2ccc(O)cc2)C(=O)N[C@H](CC(=O)O)C(=O)N[C@H](Cc2c[nH]cn2)C(=O)N[C@H](CCC(N)=O)C(N)=O)cc1O ({Benzoyl(3-OH,4-OMe)}-[dY][dD][dH][dQ]-NH2)
inhibition at 0.01 µM ([2]; read-out: % inhibition (ELISA)): 7%

More lines, now with the values ahead:

inhibition at 0.042 µM [2, 7]: 93%
IC50 [2, 8]: < 42 nM
aqueous solubility [4]: low
Molecule: CC(=O)N[C@@H](Cc1c[nH]c2ccccc12)C(=O)N[C@@H](CC(=O)O)C(=O)N[C@@H](CCCNC(=N)N)C(=O)N[C@@H](Cc1c[nH]c2ccccc12)C(N)=O [Ac-WDRW-NH2] (Ac-WDRW-NH2)

inhibition at 0.01 µM [2, 5]: 60%
IC50 [2, 6]: < 10 nM
Molecule: N=C(N)NCCC[C@@H](NC(=O)[C@@H](CCC(=O)O)NC(=O)[C@@H](Cc1ccc(O)cc1)NC(=O)OCC1c2ccccc2-c2ccccc21)C(=O)N[C@H](Cc1ccccc1)C(N)=O [Fmoc-YERF-NH2]

inhibition at 0.01 µM [2, 5]: 12%
Molecule: NC(=O)CC[C@@H](NC(=O)[C@@H](Cc1c[nH]cn1)NC(=O)[C@@H](CC(=O)O)NC(=O)[C@@H](Cc1ccc(O)cc1)NC(=O)OCc1ccccc1)C(N)=O [z-DNC, z-YDHQ-NH2] (Cbz-[dY][dD][dH][dQ]-NH2)

inhibition at 0.042 µM [2, 10]: 13%
Molecule: CC(=O)N[C@H](Cc1ccc(O)cc1)C(=O)N[C@H](CCC(=O)O)C(=O)N1CCC[C@@H]1C(=O)N[C@H](Cc1ccccc1)C(N)=O [Ac-YEPF-NH2] (Ac-[dY][dE][dP][dF]-NH2)

% inhibition (ELISA) ([2]; Table S2): 45%
Molecule: Ac-WDRF-NH2

inhibition at 0.042 µM [2, 10]: 0%
Molecule: CC(=O)N[C@H](Cc1ccc(O)cc1)C(=O)N[C@H](CCC(=O)O)C(=O)N[C@H](CCCNC(=N)N)C(=O)N1CCC[C@@H]1C(N)=O [Ac-YERP-NH2] (Ac-[dY][dE][dR][dP]-NH2)

% inhibition (ELISA) ([2]; Table S2): 35%
Molecule: Ac-WEHF-NH2

inhibition at 0.01 µM [2, 5]: 6%
IC50 [2, 6]: > 10 nM
Molecule: CC(=O)N[C@H](Cc1ccc(O)cc1)C(=O)N[C@H](CCC(=O)O)C(=O)N[C@H](CCCNC(=N)N)C(=O)N[C@H](Cc1ccccc1)C(=O)N[C@H](CCCCNC(=O)OCc1ccccc1)C(N)=O [Ac-YERFK(εZ)-NH2] (Ac-[dY][dE][dR][dF][dK](Cbz)-NH2)

inhibition at 0.042 µM [2, 7]: 64%
IC50 [2, 8]: < 42 nM
inhibition at 0.042 µM [2, 10]: 69%
Molecule: CC(=O)N[C@@H](Cc1c[nH]c2ccccc12)C(=O)N[C@@H](CCC(=O)O)C(=O)N[C@@H](CCCNC(=N)N)C(=O)N[C@@H](Cc1c[nH]c2ccccc12)C(N)=O [Ac-WERW-NH2] (Ac-WERW-NH2)

inhibition at 0.042 µM [2, 10]: 13%
Molecule: CC(=O)N[C@H](Cc1ccc(O)cc1)C(=O)N1CCC[C@@H]1C(=O)N[C@H](CCCNC(=N)N)C(=O)N[C@H](Cc1ccccc1)C(N)=O [Ac-YPRF-NH2] (Ac-[dY][dP][dR][dF]-NH2)

% inhibition (ELISA) ([2]; Table S2): 57%
Molecule: Ac-YDHW-NH2

% inhibition (ELISA) ([2]; Table S2): 52%
Molecule: Ac-YEHF-NH2
